Patent publication US12616759B2, “Uses of labeled HSP90 inhibitors” (Sloan-Kettering Institute for Cancer Research, priority 2011, dated 2026)

Legend:
AML cell lines = test: apoptosis in AML cell lines, acridine orange/ethidium bromide; type: cell-based, human
Protocol: (§1) Apoptosis Assay: Cells were treated for 24, 48 or 72 h with vehicle (DMSO) or inhibitors as indicated. Following staining with Acridine Orange and Ethidium Bromide (1:1 mix of 100 µg/ml), cells were visualized with a fluorescent microscope (Zeiss Axiovert 40 CFL) and counted. Percentage of apoptotic cells was determined from 200-300 cells counted in each group. The percentage of apoptotic cells was calculated as: % Apoptotic cells=(total number of cells with apoptotic nuclei/total number of cells counted)×100.

[1] = tested on: FL5.12 mAKT-transfected cells; test: apoptosis in mAKT-transfected FL5.12 cells; type: cell-based
Source text: FL5.12 was derived as an interleukin-3 (IL-3)-dependent cell line with a functional JAK/STAT pathway and it has characteristic features of an early lymphocytic progenitor. Both the parental cells and the transfected cells express moderate-levels of active AKT and STAT5, as evidenced by AKT phosphorylation on Ser473 and STAT5 phosphorylation on Tyr694, respectively. The level of p-STAT5 but not p-AKT is dependent on the presence of IL-3. Introduction of a constitutively activated, myristoylated form of AKT (mAKT) under the control of a doxycycline (DOX)-inducible promoter further allows for the regulation of p-AKT levels in these cells. All together, these cells are a good isogenic model to evaluate the dependence of HSP90 inhibitor apoptotic sensitivity on activated AKT and STAT5-pathways.
Cells: Kasumi-1, SKNO-1, MOLM-13, MO-91, HEL, HL-60, THP-1, MV4-11 were grown in RPMI media supplemented with 10 mM HEPES, 4.5 g/L glucose, 1.5 g/L sodium bicarbonate, 1 mM sodium pyruvate, 10% FBS, and 1% penicillin/streptomycin. The stable transfectants of FL5.12 were previously described (18-Karnauskas 2003). In brief, for the generation of FL5.mAKT the myristylated AKT was cloned in the doxycycline inducible vector pRevTRE (Clontech) (this clone is designated mAKT). As a control, cell were transfected with vector alone (this clone is designated Vector). For generation of FL5.mAkt.Bcl-xL, the human Bcl-xL cDNA was cloned into the EcoRI site of the pBabePuro vector, and transfected into FL5.mAkt3 as described (18) (this clone is designated mAKT.Bcl-xL). These lines were cultured as described previously using DME-HG media supplemented with 10 mM HEPES, 10% FBS media containing 1 mg/ml Geneticin (G418) (Sigma #G9516) and 1 or 2 ng/mL of IL-3 (RD Systems #403 ML).
as §1
Western blot: Cells were grown to 60-70% confluence and treated with inhibitor or vehicle for the indicated times. Protein lysates were prepared in 50 mM Tris pH 7.4, 150 mM NaCl and 1% NP-40 lysis buffer. Protein concentrations were measured using the BCA kit (Pierce) according to the manufacturer's instructions. Protein lysates (10-100 μg) were resolved by SDS-PAGE, transferred onto nitrocellulose membrane and incubated with the indicated primary antibodies. […]

HSP90 [2] = test: concomitant binding to HSP90 and streptavidin, K562 lysate; settings: 100 μM; for HSP90-streptavidin binding with K562 lysate: streptavidin beads, overnight; for band at approximately 90 kDa, concomitant binding to HSP90 and streptavidin: K562 lysate, SDS-PAGE
Protocol: Having shown that each of the prepared biotinylated molecules retain good affinity to HSP90 we next wanted to determine whether the chain length was sufficient to maintain concomitant binding to HSP90 and streptavidin. […] Following sufficient washing to remove any unbound material, the remaining bead pellet was analyzed by SDS-PAGE. The gel was washed and stained with coomasie blue for 1 h.

HSP90 [3] = test: fluorescence polarization HSP90 binding assay using SKBr3 cancer cell lysate; settings: fluorescence polarization
HSP90 [4] = test: concomitant HSP90-streptavidin binding in live K562 cells; type: cell-based; settings: for HSP90-streptavidin binding with K562 cells: live cells
Source text: Having shown that some of the molecules bind concomitantly to HSP90 and streptavidin, we next investigated whether this can similarly be accomplished in live cells.

lung and bone metastases = test: response of breast cancer patient to STA9090 by CT and FDG-PET; type: in vivo, human; settings: triple-negative breast cancer patient
Protocol: FIGS. 28A, 28B, 28C, and 28D. A triple-negative breast cancer patient was imaged with ^124I-PU-H71 PET. At 20 min post-injection, uptake is noted in a lung mass (left arrow), and a bone lesion (right arrow) FIG. 28A, but at 24 h uptake is seen only in the lung lesion FIG. 28B. Both the lung and bone tumors are confirmed by CT and FDG-scans FIG. 28C. The patient started treatment with the HSP90 inhibitor STA-9090.
In another aspect of the present invention, patients who are identified as being candidates for HSP90 therapy are treated with a pharmaceutically effective amount of an HSP90 inhibitor. We have determined that cancer patients that are determined to be candidates to HSP90 inhibition therapy respond highly favorably to HSP90 inhibition therapy. If a patient has multiple tumors, then only those tumors with a sufficient avidity for the radiolabeled HSP90 inhibitor are expected to respond to HSP90 inhibition therapy. […] Similar results were obtained in patients with lymphoma, pancreatic cancer and neuroblastoma patients.

Row | HSP90-streptavidin binding with K562 lysate (HSP90 [2]) | band at approximately 90 kDa, concomitant binding to HSP90 and streptavidin (HSP90 [2]) | EC50 (HSP90 [3]) [nM] | SMILES | HSP90-streptavidin binding with K562 cells (HSP90 [4]; 100 μM, 4 h) | binding in live K562 cells (HSP90 [4]; 100 μM, 4 h) | further results
1 |  |  |  | O=c1[nH]c2ccccc2n1C1CCN(Cc2ccc(-c3nc4cc5[nH]cnc5cc4nc3-c3ccccc3)cc2)CC1 [AKTi, reference compound] |  |  | effect on apoptosis (AML cell lines; HEL cells in culture): little to no effect; apoptotic cells ([1]; AKT activity increased by DOX): 30%; apoptotic cells ([1]; without DOX): 15-20%
2 |  |  |  | COc1cccc(-c2cc(=O)c3ccccc3o2)c1N [MEKi, reference compound] |  |  | induction of apoptosis (AML cell lines; 24, 48 and 72 h): Modest or little induction of apoptosis
3 | No | did not show a band at 90 kDa | 154 | CC(C)N(CCCn1c(Sc2cc3c(cc2I)OCO3)nc2c(N)ncnc21)C(=O)CCCC[C@@H]1SC[C@@H]2NC(=O)N[C@@H]21 [PU-H71-biotin2] | No |  | 
4 | No | did not show a band at 90 kDa | 44.3 | Nc1ncnc2c1nc(Sc1cc3c(cc1I)OCO3)n2CCCNC(=O)CCCC[C@@H]1SC[C@@H]2NC(=O)N[C@@H]21 [PU-H71-biotin3] | No |  | 
5 | No | did not show a band at 90 kDa | 34.8 | Nc1ncnc2c1nc(Sc1cc3c(cc1I)OCO3)n2CCCNC(=O)CCCCCNC(=O)CCCC[C@@H]1SC[C@@H]2NC(=O)N[C@@H]21 [PU-H71-biotin4] | No |  | 
6 | Yes | show a band at approximately 90 kDa | 31.4 | Nc1ncnc2c1nc(Sc1cc3c(cc1I)OCO3)n2CCCNC(=O)CCCCCNC(=O)CCCCCNC(=O)CCCC[C@@H]1SC[C@@H]2NC(=O)N[C@@H]21 [PU-H71-biotin5] | Yes | are able to permeate the cell membrane | 
7 | Yes | show a band at approximately 90 kDa | 66.2 | Nc1ncnc2c1nc(Sc1cc3c(cc1I)OCO3)n2CCCNC(=O)CCOCCOCCOCCOCCNC(=O)CCCC[C@@H]1SC[C@@H]2NC(=O)N[C@@H]21 [PU-H71-biotin6] | Yes | are able to permeate the cell membrane | band at approximately 90 kDa (HSP90 [4]; 0.5 μM): still shows a faint band; binding in live K562 cells (HSP90 [4]; 10 μM): maintain good binding; band at approximately 90 kDa (HSP90 [4]; lowest concentration 1 μM): a faint band is still present
8 | No | did not show a band at 90 kDa | 72.8 | CC(C)N(CCCn1c(Sc2cc3c(cc2I)OCO3)nc2c(N)ncnc21)C(=O)CCCCCNC(=O)CCCC[C@@H]1SC[C@@H]2NC(=O)N[C@@H]21 [PU-H71-biotin7] | No |  | 
9 | Yes | show a band at approximately 90 kDa | 76.9 | CC(C)N(CCCn1c(Sc2cc3c(cc2I)OCO3)nc2c(N)ncnc21)C(=O)CCCCCNC(=O)CCCCCNC(=O)CCCC[C@@H]1SC[C@@H]2NC(=O)N[C@@H]21 [PU-H71-biotin8] | Yes | are able to permeate the cell membrane | 
10 | Yes | show a band at approximately 90 kDa | 110 | CC(C)N(CCCn1c(Sc2cc3c(cc2I)OCO3)nc2c(N)ncnc21)C(=O)CCOCCOCCOCCOCCNC(=O)CCCC[C@@H]1SC[C@@H]2NC(=O)N[C@@H]21 [PU-H71-biotin9] | Yes | are able to permeate the cell membrane | binding in live K562 cells (HSP90 [4]; 10 μM): maintain good binding; band at approximately 90 kDa (HSP90 [4]; lowest concentration 1 μM): a faint band is still present
11 | Yes | show a band at approximately 90 kDa | 58.9 | Nc1ncnc2c1nc(Sc1cc3c(cc1I)OCO3)n2CCCNCCOCCOCCOCCNC(=O)CCCC[C@@H]1SC[C@@H]2NC(=O)N[C@@H]21 [PU-H71-biotin] | No | failed to maintain binding in live cells | 
12 |  |  |  | CC(C)c1cc(-c2n[nH]c(=O)n2-c2ccc3c(ccn3C)c2)c(O)cc1O [STA9090] |  |  | tumor response (lung and bone metastases): early partial response was demonstrated by FDG PET-CT studies in the lung mass but not in the spinal lesion; tumor response (lung and bone metastases; listed as STA-9090): the lung but not the bone lesion is remarkably reduced in size
